± gives the expanded uncertainty stated by the source.
Assays:
[1] = Crystal; DTA
[2] = molar heat capacity at constant pressure; settings: 101.33 kPa, Large sample (1 g) DSC
[3] = Molar enthalpy of transition or fusion; settings: Crystal; DSC

SMILES: CO[C@H]1O[C@H](CO)[C@@H](O)[C@H](O)[C@H]1O [methyl-α-D-glucopyranoside]
- Normal melting temperature [1]: 169.18 ± 0.5 °C
- molar heat capacity at constant pressure ([2]; 298.15 K, Crystal): 291.48 ± 7.1 J/K/mol
- molar heat capacity at constant pressure ([2]; 303.15 K, Crystal): 294.68 ± 7.2 J/K/mol
- molar heat capacity at constant pressure ([2]; 308.15 K, Crystal): 297.16 ± 7.3 J/K/mol
- molar heat capacity at constant pressure ([2]; 313.15 K, Crystal): 300.15 ± 7.3 J/K/mol
- molar heat capacity at constant pressure ([2]; 318.15 K, Crystal): 302.5 ± 7.4 J/K/mol
- molar heat capacity at constant pressure ([2]; 323.15 K, Crystal): 305.37 ± 7.5 J/K/mol
- molar heat capacity at constant pressure ([2]; 328.15 K, Crystal): 308.34 ± 7.5 J/K/mol
- molar heat capacity at constant pressure ([2]; 333.15 K, Crystal): 311.81 ± 7.6 J/K/mol
- molar heat capacity at constant pressure ([2]; 338.15 K, Crystal): 315.04 ± 7.7 J/K/mol
- molar heat capacity at constant pressure ([2]; 343.13 K, Crystal): 317.77 ± 7.8 J/K/mol
- molar heat capacity at constant pressure ([2]; 348.15 K, Crystal): 320.54 ± 7.8 J/K/mol
- molar heat capacity at constant pressure ([2]; 353.15 K, Crystal): 323.46 ± 7.9 J/K/mol
- molar heat capacity at constant pressure ([2]; 358.15 K, Crystal): 327.84 ± 8 J/K/mol
- molar heat capacity at constant pressure ([2]; 363.15 K, Crystal): 331.47 ± 8.1 J/K/mol
- molar heat capacity at constant pressure ([2]; 368.15 K, Crystal): 334 ± 8.2 J/K/mol
- molar heat capacity at constant pressure ([2]; 373.15 K, Crystal): 336.83 ± 8.2 J/K/mol
- molar heat capacity at constant pressure ([2]; 378.15 K, Crystal): 339.69 ± 8.3 J/K/mol
- molar heat capacity at constant pressure ([2]; 383.15 K, Crystal): 342.52 ± 8.4 J/K/mol
- molar heat capacity at constant pressure ([2]; 388.15 K, Crystal): 345.56 ± 8.5 J/K/mol
- molar heat capacity at constant pressure ([2]; 393.15 K, Crystal): 348.77 ± 8.5 J/K/mol
- molar heat capacity at constant pressure ([2]; 398.15 K, Crystal): 352.33 ± 8.6 J/K/mol
- molar heat capacity at constant pressure ([2]; 403.15 K, Crystal): 356.35 ± 8.7 J/K/mol
- molar heat capacity at constant pressure ([2]; 408.15 K, Crystal): 360.93 ± 8.8 J/K/mol
- molar heat capacity at constant pressure ([2]; 413.15 K, Crystal): 366.26 ± 9 J/K/mol
- molar heat capacity at constant pressure ([2]; 418.15 K, Crystal): 369.54 ± 9.1 J/K/mol
- molar heat capacity at constant pressure ([2]; 423.15 K, Crystal): 372.62 ± 9.1 J/K/mol
- molar heat capacity at constant pressure ([2]; 428.15 K, Crystal): 376.07 ± 9.2 J/K/mol
- molar heat capacity at constant pressure ([2]; 433.15 K, Crystal): 379.37 ± 9.3 J/K/mol
- molar heat capacity at constant pressure ([2]; 453.15 K, Liquid): 510.58 ± 13 J/K/mol
- molar heat capacity at constant pressure ([2]; 458.15 K, Liquid): 511.8 ± 13 J/K/mol
- molar heat capacity at constant pressure ([2]; 463.15 K, Liquid): 513 ± 13 J/K/mol
- molar heat capacity at constant pressure ([2]; 468.15 K, Liquid): 514.17 ± 13 J/K/mol
- molar heat capacity at constant pressure ([2]; 473.15 K, Liquid): 515.44 ± 13 J/K/mol
- molar heat capacity at constant pressure ([2]; 478.15 K, Liquid): 516.62 ± 13 J/K/mol
- molar heat capacity at constant pressure ([2]; 483.15 K, Liquid): 517.93 ± 13 J/K/mol
- molar heat capacity at constant pressure ([2]; 488.15 K, Liquid): 519.22 ± 13 J/K/mol
- molar heat capacity at constant pressure ([2]; 493.15 K, Liquid): 520.14 ± 13 J/K/mol
- molar heat capacity at constant pressure ([2]; 498.15 K, Liquid): 521.17 ± 13 J/K/mol
- molar heat capacity at constant pressure ([2]; 503.15 K, Liquid): 522.4 ± 13 J/K/mol
- molar heat capacity at constant pressure ([2]; 508.15 K, Liquid): 523.64 ± 13 J/K/mol
- molar heat capacity at constant pressure ([2]; 513.15 K, Liquid): 524.87 ± 13 J/K/mol
- Molar enthalpy of transition or fusion [3]: 6.7 ± 3.82 kcal/mol
